Data taken from EP3502102A1, “STING INHIBITORS” (ECOLE POLYTECHNIQUE FEDERALE DE LAUSANNE (EPFL), priority 2017, dated 2019).

Legend:
STING [1] = target: T1, STING (Mus musculus, UniProt Q3TBT3); assay: Blue native gel assay of STING clusters; assay type: cell-based; parameters: expressed in transfected cells; host or cells: HEK293T; details: C-178, C-176 1 µM, 2-BP 50 µM; CMA 1.5 h
T1 sequence (Q3TBT3 1-378): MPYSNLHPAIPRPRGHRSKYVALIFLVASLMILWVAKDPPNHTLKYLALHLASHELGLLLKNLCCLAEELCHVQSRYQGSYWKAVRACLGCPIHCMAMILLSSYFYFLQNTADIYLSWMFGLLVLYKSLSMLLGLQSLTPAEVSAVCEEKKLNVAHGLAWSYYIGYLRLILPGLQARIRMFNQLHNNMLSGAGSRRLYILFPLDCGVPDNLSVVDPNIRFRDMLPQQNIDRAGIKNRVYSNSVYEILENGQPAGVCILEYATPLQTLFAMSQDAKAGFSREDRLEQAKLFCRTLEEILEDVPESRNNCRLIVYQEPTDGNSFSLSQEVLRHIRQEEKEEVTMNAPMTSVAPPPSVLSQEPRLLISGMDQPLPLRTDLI
Protocol: (§1) Reporter activity was measured 16 h after compound treatment. A nonlinear regression analysis was performed. […] Circles indicate substitutes compared to C-176. d, e, Chemical compounds from (c) were tested at 0.5 µM for inhibitory activity in HEK293T cells transfected with STING (e) or RIG-I (f) in conjunction with IFN-• luciferase reporter, respectively. b, e, f, Values of inhibitor-treated cells were normalized to DMSO-treated cells. […] Cytokine levels were normalized to DMSO-treated control cells. A nonlinear regression analysis was performed for cGAMP stimulation. b, c, BMDMs were pre-treated with C-178 (0.25 µM) and stimulated with cGAMP, cyclic di-GMP, CMA, 90mer dsDNA or LPS for 3 h. The induction of Ifnb1 mRNA levels was assessed by RT-qPCR. d, Heatmaps of RNA sequencing analysis of BMDMs treated with DMSO or CMA and with or without addition of C-178. […] Reporter activity was measured 16 h after transfection and values were normalized to DMSO-treated control cells. c, BMDMs were treated with C-178 (0.25 µM) for 1 h, washed or left untreated and after an additional hour stimulated with cGAMP. […] Flag-STING was immunoprecipitated from whole cell lysate and analysed by autoradiography. In parallel, cell lysates were analysed by immunoblotting for p-TBK1 and STING. d, HEK293T cells expressing STING were treated as indicated (C-178 (1 µM)) and stimulated with CMA for 1.5 h. […]

STING [2] = target: T1, STING; assay: IFN-beta luciferase reporter in HEK293T cells transfected with STING, alone or with a cyclic dinucleotide synthase; assay type: cell-based; parameters: expressed in transfected cells; host or cells: HEK293T
Protocol: Reporter activity was measured 16 h after compound treatment. A nonlinear regression analysis was performed. […] Cytokine levels were normalized to DMSO-treated control cells. […] Nuclei were stained with DAPI. […] Depicted genes were measured by RT-qPCR. […] 16 h later Luciferase activity was measured. […] Flag-STING was immunoprecipitated and analysed by autoradiography.
HEK293T cells expressing murine STING with an N-terminal mCherry-tag ^28 were transfected using GeneJuice (Millipore) with a construct encoding for cyclic di-GMP synthase in conjunction with an IFN-• firefly luciferase reporter plasmid. 3 h after transfection cells were seeded in […] (Corning) coated with library compounds. For each compounds, a 40 nl volume was selected to obtain a concentration of 10 µM in the assay plates. The amount of DMSO in each well was normalised to 0.1%. After overnight treatment, cells were lysed in lysis buffer (25 mM Tris-phosphate (pH 7.8), 2 mM DTT, 2 mM 1,2-diaminocyclohexane-N,N,N',N'-tetraacetic acid, 10% glycerol, 1% Triton® X-100) for 20 min followed by the addition of firefly luciferase. Reporter activity was measured using a Tecan Infinite plate reader. The screen was performed using on ∼ 20.000 compounds from a chemically diverse compound collection available at the BSF core facility at EPFL.
In these cells, transient transfection of vectors encoding for cyclic di-GMP synthase (cdG-Syn) and an IFN-• reporter leads to robust induction of firefly luciferase activity. We used this system to perform a high-throughput chemical screen with a library of ∼ 20.000 small molecule compounds (Fig. 6b). To increase the selectivity of candidate compounds against the STING pathway, hits from the primary screen were counter-screened for their effect on RIG-I-driven activation of the IFN-• reporter. […] To further validate the two small molecules, we treated wild-type HEK293T cells with C-178 and C-176, in which STING was either expressed alone or in conjunction with cdG-Syn. […] We next conducted a limited structure-activity relationship (SAR) analysis. Since both C-178 and C-176 share a characteristic nitrofuran moiety, we prepared analogues of C-176/8 in which this structural motif was substituted (Fig. 1c).

BMDMs = assay: RNA sequencing of BMDMs with or without CMA; assay type: cell-based, mouse; details: pre-treatment with C-178, CMA
Protocol: as §1

[3] = target: T2, hsSTING(AA1-138)-mmSTING(AA138-378) (UniProt Q3TBT3+Q86WV6); assay: IFN reporter in HEK293T cells, chimeric construct 1; assay type: cell-based; details: reversed construct (human N-terminal, mouse C-terminal part); 0.5 µm
T2 construct: hsSTING(AA1-138)-mmSTING(AA138-378); expressed in transfected cells; host or cells: HEK293T
Protocol: as §1

TLR-4 = target: T3, TLR-4 (Mus musculus, UniProt Q9QUK6); assay: Ifnb1 mRNA (RT-qPCR) in BMDMs stimulated with LPS (control); assay type: cell-based; details: 0.25 µM
T3 construct: endogenous in cells; host or cells: BMDMs from wild type mice
T3 sequence (Q9QUK6 26-835): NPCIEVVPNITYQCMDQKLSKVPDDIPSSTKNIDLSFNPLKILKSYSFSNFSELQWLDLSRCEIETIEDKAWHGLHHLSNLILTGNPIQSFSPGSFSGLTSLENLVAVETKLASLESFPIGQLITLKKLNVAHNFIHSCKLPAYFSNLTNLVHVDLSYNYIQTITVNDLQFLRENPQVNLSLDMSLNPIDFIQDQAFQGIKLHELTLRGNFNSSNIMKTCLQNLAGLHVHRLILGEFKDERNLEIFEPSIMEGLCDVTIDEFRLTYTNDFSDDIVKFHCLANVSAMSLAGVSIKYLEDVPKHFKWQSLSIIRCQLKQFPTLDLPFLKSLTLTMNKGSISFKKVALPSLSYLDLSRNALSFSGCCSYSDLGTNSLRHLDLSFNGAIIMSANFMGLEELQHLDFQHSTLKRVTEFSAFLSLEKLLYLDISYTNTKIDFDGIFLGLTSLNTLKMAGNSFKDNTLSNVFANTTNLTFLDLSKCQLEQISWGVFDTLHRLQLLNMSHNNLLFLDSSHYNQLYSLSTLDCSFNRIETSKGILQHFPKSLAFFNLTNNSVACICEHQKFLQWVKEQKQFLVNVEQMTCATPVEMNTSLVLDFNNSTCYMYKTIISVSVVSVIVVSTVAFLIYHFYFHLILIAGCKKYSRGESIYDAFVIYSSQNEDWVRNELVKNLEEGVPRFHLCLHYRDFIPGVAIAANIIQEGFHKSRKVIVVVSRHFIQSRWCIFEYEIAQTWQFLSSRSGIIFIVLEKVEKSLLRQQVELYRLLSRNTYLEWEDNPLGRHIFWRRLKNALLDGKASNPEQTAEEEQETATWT
T3 sequence (Q9JHF9 19-160 partner): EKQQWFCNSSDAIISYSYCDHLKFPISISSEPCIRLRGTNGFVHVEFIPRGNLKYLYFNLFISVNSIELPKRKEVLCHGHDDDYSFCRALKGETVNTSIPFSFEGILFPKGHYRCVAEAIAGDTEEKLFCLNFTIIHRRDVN
Protocol: as §1

STING [4] = target: T1, STING; assay: Type I IFN bioassay of BMDMs stimulated with cGAMP; assay type: cell-based; parameters: endogenous in cells; host or cells: BMDMs from wild type mice; details: BMDMs pre-treated, 0.02 µM- 2.5 µM, read-out: calculated IC50, production of type I IFNs
Protocol: as §1

T2 sequence (Q86WV6 1-138, one chain of several): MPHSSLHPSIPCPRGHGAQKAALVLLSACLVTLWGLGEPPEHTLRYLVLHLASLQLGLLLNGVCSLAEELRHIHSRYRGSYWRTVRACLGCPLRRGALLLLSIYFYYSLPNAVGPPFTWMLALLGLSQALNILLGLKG

CCCCCCCCCCCCCCC(Br)C(=O)O (centres unmarked) [2-bromopalmitate, reference compound]
assembly of STING clusters (STING [1]): blocked

O=C(Nc1ccc(I)cc1)c1ccco1 [C-176-009]
inhibitory capacity against STING (STING [2]; derivatives tested at 0.5 µM, HEK293T transfected with STING): inactive

O=C(Nc1ccc2c(c1)oc1ccccc12)c1ccc([N+](=O)[O-])o1 [C-178, N-dibenzo[b,d]furan-3-yl-5-nitro-2-furamide]
half-maximal inhibitory concentration (IC50) values, IFN-• reporter activity (STING [2]; wild-type HEK293T, STING expressed alone or in conjunction with cdG-Syn, 0.01-5µM, 16 h): nanomolar
significantly affected induced expression, number of the 500 most up-regulated genes after CMA (BMDMs): 498
significantly affected induced expression, share of the 500 most up-regulated genes after CMA (BMDMs): 99.6%
IFN reporter activity of chimeric construct [3]: inactive
activity against the TLR-4 agonist LPS (TLR-4): not active
IC50 (STING [4]): ~23 nM
